Experiment in all cases: NCI tumour cell line growth inhibition, 48 h
Assay [1] has as its system 786-0.
Assay [2] relates to A549.
Assay [3] concerns ACHN.
For assay [4], the system named is COLO 205.
Assay [5] has as its system HCT-116.
The test system of assay [6] is HCT-15.
Assay [7] deals with IGROV-1.
Assay [8] relates to K562.
Assay [9] has as its system M14.
Assay [10] deals with NCI-H226.
For assay [11], the system named is OVCAR-3.
Assay [12] deals with OVCAR-5.
The test system of assay [13] is OVCAR-8.
The test system of assay [14] is SK-MEL-5.
Assay [15] has as its system HL-60.

Structures are written as SMILES.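 Values below derive from 48-hour exposures of cells grown in 96-well plates, with endpoints linearly interpolated between the two concentrations bracketing the appropriate inhibition level. GI50: concentration for 50% inhibition of growth.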 Activity calls are given as the source filed them. Rule as the data show it: active = GI50 up to about 1.1 µM and inactive = higher.

Turning to `C#CCNC(=O)NCCCCC(NC(C)=O)C(=O)NCc1ccccc1` (stereo not drawn), the GI50 in [1] is > 100 µM (inactive); in assay [2], > 100 µM (inactive); in [3], > 100 µM (inactive); in assay [4], > 100 µM (inactive); in assay [5], > 100 µM (inactive); in assay [6], above 100 µM. The GI50 in assay [7], in assay [8], in assay [9], in assay [10], in assay [11] and in [12] was > 100 µM (inactive) each time. Further, the GI50 in assay [13] and in assay [14] was > 100 µM (inactive) in each case.
As for `CC1OC(OP(=O)(OCc2ccccc2)OCc2ccccc2)C(OC(=O)c2ccccc2)C(OC(=O)c2ccccc2)C1I` (stereo not drawn), the GI50 in assay [1] is 50.9 µM (inactive); in assay [2], 26.4 µM (inactive); in assay [3], 32.6 µM (inactive); in assay [4] it was 30.2 µM (inactive); in [5], 28.1 µM (inactive); in [6], 45.9 µM. Further, the GI50 was 20.7 µM (inactive) in assay [15]; 76 µM (inactive) in [7]; 29.3 µM (inactive) in [8]; 37.6 µM (inactive) in assay [9]; 46 µM (inactive) in assay [11]; 98.6 µM (inactive) in assay [12]. The GI50 was 98.4 µM (inactive) in assay [13] and 27.3 µM (inactive) in assay [14].
For `O=C(/C=C/c1ccccc1F)c1ccc([N+](=O)[O-])cc1`, the GI50 in assay [1] is 26.8 µM (inactive); in assay [2], 31.4 µM (inactive); in [3] it was 31.2 µM (inactive); in assay [4], 35.2 µM (inactive); in [6] it was 18.2 µM; in assay [7], 24.3 µM (inactive). In addition, the GI50 in assay [8] was 5.77 µM (inactive); in assay [9] it was 26.8 µM (inactive); in assay [11], 24.6 µM (inactive); in assay [13] it was 25.8 µM (inactive).
As for `COc1ccc(S(=O)(=O)N[C@H](C(=O)O)c2ccccc2)cc1`, the GI50 was > 100 µM (inactive) in [1]; > 100 µM (inactive) in assay [2]; > 100 µM (inactive) in assay [3]; > 100 µM (inactive) in assay [4]; > 100 µM (inactive) in assay [5]; above 100 µM in [6]. For the same compound, the GI50 in [7], in [8], in assay [9], in [10], in [11] and in assay [12] was > 100 µM (inactive) throughout. Moreover, the GI50 in assay [13] and in assay [14] was > 100 µM (inactive) throughout.
Regarding `c1ccc2c(c1)SC(=C1Sc3ccccc3S1)S2`, the GI50 was > 100 µM (inactive) in [1]; > 100 µM (inactive) in [2]; > 100 µM (inactive) in [3]; > 100 µM (inactive) in [4]; above 100 µM in [6]; > 100 µM (inactive) in assay [7]. Also, the GI50 in assay [8], in assay [9], in [11] and in assay [13] was > 100 µM (inactive) throughout.
Turning to `Cc1ccc2c(c1)-c1c3c(nn1-c1ccccc1)-c1ccccc1SC3O2` (stereo not drawn), the GI50 in assay [1], in assay [2], in assay [3], in assay [4], in assay [5] and in assay [15] was > 100 µM (inactive) throughout. Besides, the GI50 in [7] was > 100 µM (inactive); in [8], > 100 µM (inactive); in assay [11] it was > 100 µM (inactive); in assay [12], 97.1 µM (inactive); in assay [13], > 100 µM (inactive).

The record behind these values is ChEMBL document CHEMBL1201862, “PubChem BioAssay data set” (2004).
